Data taken from patent US20070249670A1, “Glycogen Phosphorylase Inhibitor Compounds and Pharmaceutical Compositions Thereof” (SMITHKLINE BEECHAM CORPORATION, priority 2004, published 2007).

Biological target: T1, human liver glycogen phosphorylase a (HLGPa) (Homo sapiens, UniProt P06737)
T1 construct: creating a full-length cDNA fused at the 5′ end to codons for methionine-glycine-alanine-histidine; 6xHis tag (leader Met-Gly-Ala-His6-Gly-Gly) (N); made in house; host or cells: E. coli (bacterial expression plasmid pTXK1007LTev)
T1 sequence (P06737 2-847 limits assumed): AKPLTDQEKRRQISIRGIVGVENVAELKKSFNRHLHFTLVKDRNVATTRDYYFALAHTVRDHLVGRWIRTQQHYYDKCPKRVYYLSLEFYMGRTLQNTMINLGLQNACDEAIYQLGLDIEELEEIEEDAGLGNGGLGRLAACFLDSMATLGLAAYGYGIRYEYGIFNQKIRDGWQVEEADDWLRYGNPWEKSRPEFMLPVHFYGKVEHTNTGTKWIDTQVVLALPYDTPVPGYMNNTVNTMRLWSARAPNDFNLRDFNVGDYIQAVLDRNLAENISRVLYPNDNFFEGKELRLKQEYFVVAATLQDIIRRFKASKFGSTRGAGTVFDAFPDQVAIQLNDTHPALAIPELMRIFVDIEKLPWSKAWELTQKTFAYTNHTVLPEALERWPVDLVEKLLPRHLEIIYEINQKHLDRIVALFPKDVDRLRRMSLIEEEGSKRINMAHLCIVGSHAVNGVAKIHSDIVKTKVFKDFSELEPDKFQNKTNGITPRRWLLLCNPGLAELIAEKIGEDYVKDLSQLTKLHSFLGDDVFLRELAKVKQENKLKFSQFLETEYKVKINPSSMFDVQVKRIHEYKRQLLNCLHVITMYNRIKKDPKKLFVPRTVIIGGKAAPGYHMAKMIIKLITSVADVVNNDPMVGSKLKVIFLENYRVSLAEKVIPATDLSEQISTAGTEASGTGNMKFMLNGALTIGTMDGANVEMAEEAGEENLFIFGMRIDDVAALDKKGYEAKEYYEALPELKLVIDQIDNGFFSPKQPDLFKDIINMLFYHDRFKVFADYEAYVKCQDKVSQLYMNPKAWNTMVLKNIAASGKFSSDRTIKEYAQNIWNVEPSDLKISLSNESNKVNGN
Test: Human liver glycogen phosphorylase a enzymatic activity assay (coupled, fluorescent resorufin readout, with and without 10 mM glucose)
Type: biochemical

[1] = human liver glycogen phosphorylase a enzymatic activity assay
[2] = human liver glycogen phosphorylase a, table does not say whether with or without 10 mM glucose

Row | Compound | IC50 [1] | IC50 [2]
1 | CCc1cccc(CC)c1NC(=O)Nc1cc2ccccc2cc1C(=O)NC(C(=O)O)c1ccccc1 (stereo not shown) [Example 120, {[3-({[(2,6-diethylphenyl)amino]carbonyl}amino)-2-naphthoyl]amino}(phenyl)acetic acid] | 24600 nM | 
2 | Cc1cccc(Cl)c1NC(=O)Nc1cc2ccccc2cc1C(=O)N[C@@H](CC(N)=O)C(=O)O [Example 40, N-[3-({[(2-chloro-6-methylphenyl)amino]carbonyl}amino)-2-naphthoyl]-L-asparagine] | 420 nM | 
3 | Cc1cc(C)c(NC(=O)Nc2cc(N)ccc2C(=O)N[C@H](C(=O)O)C2CCCCC2)c(C)c1 [Example 196, (2S)-({[4-Amino-2-({[(2,4,6-trimethylphenyl)amino]carbonyl}-amino)phenyl]carbonyl}amino)(cyclohexyl)ethanoic acid] | 110 nM | 
4 | O=C(Nc1cc(C(F)(F)F)cc(C(F)(F)F)c1)Nc1cc2ccccc2cc1C(=O)N[C@H](C(=O)O)C1CCCCC1 [Example 240, (2S)-[({3-[({[3,5-bis(trifluoromethyl)phenyl]amino}carbonyl)amino]-2-naphthalenyl}carbonyl)amino](cyclohexyl)ethanoic acid] |  | 8180 nM
5 | Cc1cc(Br)cc(C)c1NC(=O)Nc1cc2ccccc2cc1C(=O)NC1(C(=O)O)CCCCCC1 [Example 308, 1-({[3-({[(4-bromo-2,6-dimethylphenyl)amino]carbonyl}amino)-2-naphthalenyl]carbonyl}amino)cycloheptanecarboxylic acid] |  | 250 nM
6 | Cc1cc(C)c(NC(=O)Nc2sc(-c3ccc(OC(F)(F)F)cc3)cc2C(=O)N[C@H](C(=O)O)C2CCCCC2)c(C)c1 [Example 431, (2S)-cyclohexyl({[5-{4-[(trifluoromethyl)oxy]phenyl}-2-({[(2,4,6-trimethylphenyl)amino]carbonyl}amino)-3-thienyl]carbonyl}amino)ethanoic acid] | 330 nM | 
7 | O=C(Nc1cc(-c2ccccc2)ccc1C(=O)N[C@H](C(=O)O)C1CCCCC1)Nc1c(Cl)cccc1Cl [Example 203, (2S)-Cyclohexyl({[3-({[(2,6-dichlorophenyl)amino]carbonyl}amino)-4-biphenylyl]carbonyl}amino)ethanoic acid] |  | 75 nM
8 | Cc1cc(C)c(NC(=O)Nc2cc3ccccc3cc2C(=O)N[C@H](CC(=O)O)c2ccccc2)c(C)c1 [Example 336, (3R)-3-phenyl-3-({[3-({[(2,4,6-trimethylphenyl)amino]carbonyl}amino)-2-naphthalenyl]carbonyl}amino)propanoic acid] |  | 610 nM
9 | Cc1cc(C)c(NC(=O)Nc2cc(Cl)cnc2C(=O)N[C@H](C(=O)O)C(C)OC(C)(C)C)c(C)c1 (stereo in doubt) [Example 318, N-{[5-chloro-3-({[(2,4,6-trimethylphenyl)amino]carbonyl}amino)-2-pyridinyl]carbonyl}-O-(1,1-dimethylethyl)-L-threonine] |  | 4280 nM
10 | Cc1cc(C)c(NC(=O)Nc2cc(-c3ccc(F)c(F)c3)ccc2C(=O)N[C@H](C(=O)O)[C@@H](C)OC(C)(C)C)c(C)c1 [Example 373, N-{[3′,4′-difluoro-3-({[(2,4,6-trimethylphenyl)amino]carbonyl}amino)-4-biphenylyl]carbonyl}-O-(1,1-dimethylethyl)-L-threonine] |  | 5 nM
11 | Cc1cccc(C)c1NC(=O)Nc1cc(F)c(F)cc1C(=O)N[C@@H](Cc1ccccc1)C(=O)O [Example 81, N-[2-({[(2,6-dimethylphenyl)amino]carbonyl}amino)-4,5-difluorobenzoyl]-L-phenylalanine] | 14700 nM | 
12 | COc1cccc(-c2cc(C(=O)N[C@H](C(=O)O)C3CCCCC3)c(NC(=O)Nc3c(Cl)cccc3Cl)s2)c1 [Example 417, (2S)-cyclohexyl[({2-({[(2,6-dichlorophenyl)amino]carbonyl}amino)-5-[3-(methyloxy)phenyl]-3-thienyl}carbonyl)amino]ethanoic acid] | 360 nM | 
13 | Cc1cc(C)c(NC(=O)Nc2cc3ccccc3cc2C(=O)N[C@@H](Cc2ccccc2)C(=O)O)c(C)c1 [Example 514, N-{[3-({[(2,4,6-trimethylphenyl)amino]carbonyl}amino)-2-naphthalenyl]carbonyl}-L-phenylalanine] | 52 nM | 
14 | COc1ccc(-c2nc(C(=O)N[C@H](C(=O)O)C3CCCCC3)c(NC(=O)Nc3c(Cl)cccc3Cl)s2)cc1 [Example 487, (2S)-Cyclohexyl[({5-({[(2,6-dichlorophenyl)amino]carbonyl}amino)-2-[4-(methyloxy)phenyl]-1,3-thiazol-4-yl}carbonyl)amino]ethanoic acid] | 740 nM | 
15 | O=C(Nc1cc2ccccc2cc1C(=O)NC1(C(=O)O)CCCCCC1)Nc1c(Cl)cc(Cl)cc1Cl [Example 301, 1-({[3-({[(2,4,6-Trichlorophenyl)amino]carbonyl}amino)-2-naphthalenyl]carbonyl}amino)cycloheptanecarboxylic acid] |  | 350 nM
16 | Cc1ccccc1NC(=O)Nc1cc2ccccc2cc1C(=O)N[C@@H](CC(N)=O)C(=O)O [Example 17, N-[3-({[(2-methylphenyl)amino]carbonyl}amino)-2-naphthoyl]-L-asparagine] | 4720 nM | 
17 | Cc1cc(C)c(NC(=O)Nc2cc(-c3ccc(O)cc3)ccc2C(=O)N[C@H](C(=O)O)C2CCCCC2)c(C)c1 [Example 194, (2S)-Cyclohexyl({[4′-hydroxy-3-({[(2,4,6-trimethylphenyl)amino]carbonyl}amino)-4-biphenylyl]carbonyl}amino)ethanoic acid] | 11 nM | 
18 | Cc1cccc(C)c1NC(=O)Nc1cc(F)c(F)cc1C(=O)N[C@@H](CC(C)C)C(=O)O [Example 79, N-[2-({[(2,6-dimethylphenyl)amino]carbonyl}amino)-4,5-difluorobenzoyl]-L-leucine] | 18700 nM | 
19 | O=C(O)C[C@H](NC(=O)c1cc2ccccc2cc1NC(=O)Nc1ccccc1Cl)C(=O)O [Example 151, N-{[3-({[(2-chlorophenyl)amino]carbonyl}amino)-2-naphthalenyl]carbonyl}-L-aspartic acid] | 1550 nM | 
20 | Cc1cccc(Cl)c1NC(=O)Nc1cc(F)c(F)cc1C(=O)N[C@@H](CC1CCCCC1)C(=O)O [Example 114, N-[2-({[(2-chloro-6-methylphenyl)amino]carbonyl}amino)-4,5-difluorobenzoyl]-3-cyclohexyl-L-alanine] | 18700 nM | 
21 | Cc1cc(C)c(NC(=O)Nc2cc([N+](=O)[O-])ccc2C(=O)N[C@H](C(=O)O)C2CCCCC2)c(C)c1 [Example 195, (2S)-Cyclohexyl({[4-nitro-2-({[(2,4,6-trimethylphenyl)amino]carbonyl}amino)phenyl]carbonyl}amino)ethanoic acid] | 550 nM | 
22 | CCCc1cc(C)c(NC(=O)Nc2cc3ccccc3cc2C(=O)NC2(C(=O)O)CCCCCC2)c(C)c1 [Example 309, 1-({[3-({[(2,6-dimethyl-4-propylphenyl)amino]carbonyl}amino)-2-naphthalenyl]carbonyl}amino)cycloheptanecarboxylic acid] |  | 11 nM
23 | Cc1cccc(Cl)c1NC(=O)Nc1cc2ccccc2cc1C(=O)NC(C(=O)O)c1ccccc1 (stereo not shown) [Example 123] | 270 nM | 
24 | Cc1cccc(C)c1NC(=O)Nc1cc2ccccc2cc1C(=O)NC(C)CC(=O)O (stereo not shown) [Example 500, 3-({[3-({[(2,6-dimethylphenyl)amino]carbonyl}amino)-2-naphthalenyl]carbonyl}amino)butanoic acid] | 2140 nM | 
25 | Cc1cc(C)c(NC(=O)Nc2cc3ccccc3cc2C(=O)NC(C(=O)O)C2CCC(NC3CCC3)CC2)c(C)c1 (mixture of isomers) [Example 347, (cis and trans)-[4-(cyclobutylamino)cyclohexyl]({[3-({[(2,4,6-trimethylphenyl)amino]carbonyl}amino)-2-naphthalenyl]carbonyl}amino)acetic acid] |  | 810 nM
26 | Cc1cc(C)c(NC(=O)Nc2cc(-c3ccc(F)c(F)c3)ccc2C(=O)N[C@H](C(=O)O)C2CCCCC2)c(C)c1 [Example 209, (2S)-Cyclohexyl({[3′,4′-difluoro-3-({[(2,4,6-trimethylphenyl)amino]carbonyl}amino)-4-biphenylyl]carbonyl}amino)ethanoic acid] |  | 14 nM
27 | O=C(Nc1cc2ccccc2cc1C(=O)NC(C(=O)O)C1CCOCC1)Nc1c(Cl)cc(OC(F)(F)F)cc1Cl (stereo not shown) [Example 468, {[(3-{[({2,6-dichloro-4-[(trifluoromethyl)oxy]phenyl}amino)carbonyl]amino}-2-naphthalenyl)carbonyl]amino}(tetrahydro-2H-pyran-4-yl)acetic acid] | 15 nM | 
28 | Cc1cc(C)c(NC(=O)Nc2cc3ccccc3cc2C(=O)N[C@H](C(=O)O)c2ccc(O)cc2)c(C)c1 [Example 501, (2S)-(4-hydroxyphenyl)({[3-({[(2,4,6-trimethylphenyl)amino]carbonyl}amino)-2-naphthalenyl]carbonyl}amino)ethanoic acid] | 12 nM | 
